What was measured:
male dd-strain mice = test: acute toxicity test; format: in vivo
Description: […]. The Minimum lethal dose (MLD) of the compounds was determined by observing whether or not the mice were alive after 7 days of the administration.

Wistar rats = test: diuretic effect; format: in vivo; conditions: 25 mg/kg oral, urine collected for 6 hours; for Increase in K⁺ excretion (%) / Increase in Na⁺excretion (%) / Increase in Urine (%): relative to control; for Na⁺/K⁺: relative value of control (control 1.00)
Description: Wistar rats (male: 150 - 300 g) were starved for 18 hours prior to the administration of the test compounds. […] Urine was collected for 6 hours after the administration. Urine volume was measured and the electrolytes (Na+ and K+) in the urine were determined with a flame photome[…], Hitachi Ltd., Japan). All parameters are expressed as relative values of control.

[1] = 300 mg/kg orally administered, male dd-strain mice, observed 7 days after administration

| SMILES | Minimum lethal dose (MLD) (male dd-strain mice; mouse, in vivo, 10080 min) | Increase in K⁺ excretion (%) (Wistar rats) | Increase in Na⁺excretion (%) (Wistar rats) | Increase in Urine (%) (Wistar rats) | Na⁺/K⁺ (Wistar rats) | Minimum lethal dose (MLD) (male dd-strain mice; [1]) |
| --- | --- | --- | --- | --- | --- | --- |
| CCCn1c(=S)c2[nH]c(C34CC5CC(CC3C5)C4)nc2n(CCC)c1=O [Compound 32, 8-(Noradamantan-3-yl)-1,3-dipropyl-6-thioxanthine] | more than 300 mg/kg | 41% | 114% | 100% | 1.51 |  |
| CCCn1c(=O)c2[nH]c([C@@H]3CC[C@H]4CCC[C@H]43)nc2n(CCC)c1=S (relative stereo) [Compound 24, 8-[(1R*,2R*,5R*)-Bicyclo[3.3.0]octan-2-yl]-1,3-dipropyl-2-thioxanthine] |  | 61% | 125% | 112% | 1.40 | more than 300 mg/kg |
| CCCn1c(=O)c2[nH]c(Cc3csc(N)n3)nc2n(CCC)c1=O [Compound 12, 8-(2-Aminothiazol-4-yl)methyl-1,3-dipropylxanthine] |  | 32% | 103% | 108% | 1.54 | 300 mg/kg |
| CCCn1c(=O)c2[nH]c([C@@H]3C[C@@H]4C=C[C@@H]3C4)nc2n(CCC)c1=O (relative stereo) [Compound 2, 8-[(1R*,4S*,5R*)-2-bicyclo[2.2.1]hepten-5-yl]-1,3-dipropylxanthine] | more than 300 mg/kg | 67% | 109% | 87% | 1.25 |  |

— patent EP0415456A2, “Xanthine compounds” (priority 1989, dated 1991)
